Experimental data from patent publication US4910225A, “Locally administrable therapeutic composition for inflammatory disease” (Senju Pharmaceutical Co., Ltd., priority 1988, dated 1990).

Assays:
[1] = test system: experimental ophthalmitis induced by bovine serum albumin in white rabbits (ophthalmitis I); assay: Ophthalmitis I: protein, white blood cell count and prostaglandins in anterior chamber aqueous humor; format: in vivo; conditions: for Prostaglandin in anterior chamber aqueous humor: less than the assay limit; for Protein in anterior chamber aqueous humor / White Blood Cell count in anterior chamber aqueous humor: mean ± SE
Description: Seventeen male white rabbits weighing about 2 kg were used. They were fed with 80 g of Labo RG-RO (Nippon Agricultural Co., Ltd.) daily and had free access to tap water.
After 28 days when ophthalmitis I had nearly recovered, 2.5% BSA solution was administered in a dose of 25 mg/ml/kg into the auricular vein to cause ophthalmitis (ophthalmitis II). The severity of ophthalmitis was rated according to the rating scale^(1) of Yamauchi et al., based on the Draize method in which an increased weight given to the internal segment of the eye. Observation was made with a frequency of once in one or two days during the peak period of inflammation and once in three or four days before and after the peak period for ophthalmitis I and 3, 6, 12 and 24 hours after intravenous injection of BSA for ophthalmitis II.
Gross observation was made on the day after injection of BSA into the vitreous body and with the animals arranged in the decreasing order of severity of ocular inflammation, grouping was carried out in such a manner that the intensity distribution would be uniform over the groups. Thus, a physiological saline group of 7 animals, a 0.1% Compound [I] instillation group of 4 animals and a 0.5% Compound [I] instillation group of 5 animals were provided. After this grouping procedure, the test drugs and saline were respectively instilled into both eyes of the rabbits, 50 μl per dose, 4 times a day. For induction of ophthalmitis II, each drug was instilled into both eyes, 50 μl per dose, immediately after injection of BSA into the auricular vein and at 1-hour intervals thereafter, for a total of 14 times.

[2] = test system: protein increase after paracentesis; assay: Protein increase in aqueous humor after paracentesis; format: in vivo, albino rabbits
Description: The solutions of the following formulas were used.
Totally 28 male albino rabbits (4 rabbits×7 groups) with a body weight of about 2 kg werr used. They had been confirmed, before the experiment, to have mydriatic response to 1% atropine for at least 4 hours.
50 μl each of 1% atropine solution was instilled into both eyes of the animals one hour before the 1st paracenthesis, in which approx. 0.2 ml/eye of aqueous humor (primary aqueous humor) was collected. Topical application of 50 μl each of the test drug solutions was conducted 30 min before the paracenthesis. Pupil diameter of each eye was measured with a slide caliper immediately before and 10 min after the paracenthesis. The 2nd paracenthesis was conducted 90 min after the 1st one, in which approx. 0.2 ml/eye of aqueous humor (secondary aqueous humor) was collected.

[3] = test system: carrageenin edema in rats; assay: Carrageenin edema of the conjunctiva in rats; format: in vivo; conditions: 4 hours after carrageenin; for Weight of Edema: mean ± SE for 10 eyes
Description: 1. Sodium 3-(4-bromobenzoyl)-2-aminophenyl-acetate (hereinafter referred to as Compound [I])
2. Sodium 3-(4-chlorobenzoyl)-2-aminophenyl-acetate (hereinafter referred to as Compound [II])
3. Sodium 3-benzoyl-2-aminophenylacetate (hereinafter referred to as Compound [III])
Using female Wister rates weighing 100 g in groups of 5 animals or 10 eyes, 0.05 ml of 1% carrageenin (dissolved in physiological saline at 50° C.) as a phlogogen was injected beneath the conjuctiva of both eyes to induce edema. Physiological saline, as a control, and test drugs were respectively instilled into both eyes 40 and 20 minutes before and immediately after the injection of carrageenin, in the amount of 2.5 μl per dose. Four hours after the phlogogen treatment, each animal was sacrificed by cervical dislocation and in accordance with the method of Maistrello et al.^(2), the scalp was peeled off toward the eyelid and the edematous portion together with the skin was removed along the lid margin and weighed.
^(2) Maistrello et al.: Quantitative Effect of Topically Applied Anti-inflammatory Agents on External Ocular Inflammation in Rats: Journal of Pharmaceutical Science, volume 62, pp. 1455-60(1973).

Nc1c(CC(=O)[O-])cccc1C(=O)c1ccc(Br)cc1.O.[Na+] [Compound [I], Sodium 3-(4-bromobenzoyl)-2-aminophenylacetate monohydrate]
Inhibition of prostaglandins in the aqueous humor ([1]; 0.1% and 0.5%): substantially complete inhibition of prostaglandins in the aqueous humor
Prostaglandin in anterior chamber aqueous humor ([1]; 0.1%): < 0.4 ng/mL
Protein in anterior chamber aqueous humor ([1]; 0.1%): 48.7 ± 3.8 mg/Mml
White Blood Cell count in anterior chamber aqueous humor ([1]; 0.1%): 5593 ± 3436 Cells/mm^3
Prostaglandin in anterior chamber aqueous humor ([1]; 0.5%): < 0.4 ng/mL
Protein in anterior chamber aqueous humor ([1]; 0.5%): 28.4 ± 1.6 mg/Mml
White Blood Cell count in anterior chamber aqueous humor ([1]; 0.5%): 1980 ± 654 Cells/mm^3
Effect on protein increase compared with 0.5% indomethacin ([2]; 0.01% of Compound [I]): equivalent to that of 0.5% indomethacin
Inhibition (protein increase) ([2]; content 0.0001%): 6.3%
Inhibition (protein increase) ([2]; content 0.001%): 26.3%
Inhibition (protein increase) ([2]; content 0.01%): 62.9%
Inhibition (protein increase) ([2]; content 0.1%): 87.8%
Anti-inflammatory effect compared with indomethacin ([2]; miosis and protein increase after paracentesis): stronger anti-inflammatory effect than indomethacin
Inhibitory activity on protein increase after paracentesis ([2]; rabbit, in vivo): strong and dose-related inhibitory activity on protein increase after paracenthesis
Degree of inhibition (carrageenin edema) ([3]; 1.0%): 16.9%
Weight of Edema ([3]; 1.0%): 43.93 ± 4.138 mg
Degree of inhibition (carrageenin edema) ([3]; 2.5%): 31.3%
Weight of Edema ([3]; 2.5%): 36.323 ± 3.308 mg
